Test results from US8952024B2, “Herbicidal pyrimidone derivatives” (E I du Pont de Nemours and Company, priority 2009, dated 2015).

Tests used:
Assay type in all cases: in vivo
[1] = test system: winter barley (Hordeum vulgare); experiment: Test B postemergence plant response; conditions: for Plant response rating, Barley: Postemergence
Outline: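 Visual ratings from 0 (no effect) to 100 (complete control), made against controls 13–15 days after treatment, kept in a greenhouse. Compounds were applied postemergence to potted plants at the 1- to 4-leaf stage (2–18 cm).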

[2] = test system: morningglory (Ipomoea spp.); experiment: Test A pre-/postemergence plant response
Outline: (§1)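 Pre: directed soil spray on seeded loam/sand blend. Post: same formulation (non-phytotoxic solvent + surfactant) on 2–10 cm plants, 1–2 leaf stage. Greenhouse ~10 d; visual injury score 0–100 vs untreated.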

[3] = test system: giant foxtail (Setaria faberii); experiment: Test A pre-/postemergence plant response
Outline: as §1

[4] = test system: velvetleaf (Abutilon theophrasti); experiment: Test A pre-/postemergence plant response
Outline: as §1

[5] = test system: barnyardgrass (Echinochloa crus-galli); experiment: Test A pre-/postemergence plant response
Outline: as §1

[6] = test system: large crabgrass (Digitaria sanguinalis); experiment: Test A pre-/postemergence plant response
Outline: as §1

[7] = test system: wheat (Triticum aestivum); experiment: Test A pre-/postemergence plant response
Outline: as §1

corn (Zea mays) = experiment: Test A pre-/postemergence plant response
Outline: as §1

[8] = test system: pigweed (Amaranthus retroflexus); experiment: Test A pre-/postemergence plant response
Outline: as §1

rice (Oryza sativa) = experiment: Test B flooded paddy test; conditions: for Plant response rating, Rice: Flood (flooded paddy test), 13 to 15 days
Outline: (§2)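 Visual scores run from 0 (no effect) to 100 (complete control), assigned by comparison with controls 13 to 15 days after treatment. Test compounds went straight into water standing 3 cm above the soil, around plants at the 2-leaf stage kept in a greenhouse.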

[9] = test system: ducksalad (Heteranthera limosa); experiment: Test B flooded paddy test; conditions: for Plant response rating, Ducksalad: Flood (flooded paddy test), 13 to 15 days
Outline: as §2

[10] = test system: barnyardgrass (Echinochloa crus-galli); experiment: Test B flooded paddy test; conditions: for Plant response rating, Barnyardgrass: Flood (flooded paddy test), 13 to 15 days
Outline: as §2

[11] = test system: umbrella sedge (Cyperus difformis); experiment: Test B flooded paddy test; conditions: for Plant response rating, Sedge, Umbrella: Flood (flooded paddy test), 13 to 15 days
Outline: as §2

[12] = Postemergence, 125 g ai/ha, 0 to 100 scale where 0 is no effect and 100 is complete control
[13] = Postemergence, 500 g ai/ha, 0 to 100 scale, 0 = no effect, 100 = complete control, approx. ten days
[14] = Preemergence, 125 g ai/ha, 0 to 100 scale, 0 = no effect, 100 = complete control
[15] = Preemergence, 500 g ai/ha, visual injury, 0 to 100 scale (0 no effect, 100 complete control), approx. ten days
[16] = Preemergence, 500 g ai/ha, 0 to 100 scale, 0 = no effect, 100 = complete control
[17] = 250 g ai/ha, flooded paddy test, visual rating on 0 to 100 scale (0 no effect, 100 complete control) after 13 to 15 days
[18] = 62 g ai/ha, scale of 0 to 100 where 0 is no effect and 100 is complete control
[19] = 125 g ai/ha, scale 0 to 100, 0 is no effect, 100 is complete control
[20] = Flood, 31 g ai/ha, scale 0 to 100 (0 no effect, 100 complete control)

Structure (SMILES): CCCn1c(-c2cc(F)cc(F)c2)ncc(C(=O)C2=C(O)CCCC2=O)c1=O [Compound 152]
- Barley plant response rating (0 to 100 scale) ([1]; 62 g ai/ha, postemergence, 0 is no effect, 100 is complete control, 13 to 15 days): 45
- Plant response rating, Barley ([1]; 31 g ai/ha, 0 to 100 scale (0 no effect, 100 complete control)): 10
- Plant response rating, Barley ([1]; 125 g ai/ha, scale 0 to 100 (0 no effect, 100 complete control)): 85
- Plant response rating, Barley ([1]; 250 g ai/ha, scale 0 to 100 (0 no effect, 100 complete control), 13 to 15 days): 90
- Plant response rating, Morningglory [2, 12]: 100
- Plant response rating, Morningglory [2, 13]: 100
- Plant response rating, Morningglory [2, 14]: 60
- Plant response rating, Morningglory [2, 15]: 80
- Plant response rating, Foxtail, Giant [3, 12]: 80
- Plant response rating, Foxtail, Giant [3, 13]: 100
- Plant response rating, Foxtail, Giant [3, 14]: 60
- Plant response rating, Foxtail, Giant [3, 15]: 90
- Plant response rating, Velvetleaf [4, 12]: 100
- Plant response rating, Velvetleaf [4, 13]: 100
- Plant response rating, Velvetleaf [4, 14]: 60
- Plant response rating, Velvetleaf [4, 16]: 100
- Plant response rating, Barnyardgrass [5, 12]: 100
- Plant response rating, Barnyardgrass [5, 13]: 100
- Plant response rating, Barnyardgrass [5, 14]: 50
- Plant response rating, Barnyardgrass [5, 15]: 100
- Plant response rating, Crabgrass, Large [6, 12]: 90
- Plant response rating, Crabgrass, Large [6, 13]: 100
- Plant response rating, Crabgrass, Large [6, 14]: 90
- Plant response rating, Crabgrass, Large [6, 15]: 100
- Plant response rating, Wheat [7, 12]: 20
- Plant response rating, Wheat [7, 13]: 70
- Plant response rating, Wheat [7, 14]: 20
- Plant response rating, Wheat [7, 16]: 50
- Plant response rating, Corn (corn (Zea mays); [12]): 0
- Plant response rating, Corn (corn (Zea mays); [13]): 50
- Plant response rating, Corn (corn (Zea mays); [14]): 0
- Plant response rating, Corn (corn (Zea mays); [15]): 30
- Plant response rating, Pigweed [8, 12]: 100
- Plant response rating, Pigweed [8, 13]: 100
- Plant response rating, Pigweed [8, 14]: 100
- Plant response rating, Pigweed [8, 15]: 100
- Plant response rating, Flood, Rice (rice (Oryza sativa); [17]): 60
- Plant response rating, Rice (rice (Oryza sativa); [18]): 20
- Plant response rating, Rice (rice (Oryza sativa); [19]): 30
- Rice plant response rating (rice (Oryza sativa); [20]): 20
- Plant response rating, Flood, Ducksalad [9, 17]: 100
- Plant response rating, Ducksalad [9, 18]: 90
- Plant response rating, Ducksalad [9, 19]: 100
- Ducksalad plant response rating [9, 20]: 0
- Plant response rating, Flood, Barnyardgrass [10, 17]: 75
- Plant response rating, Barnyardgrass [10, 18]: 25
- Plant response rating, Barnyardgrass [10, 19]: 50
- Barnyardgrass plant response rating [10, 20]: 15
- Plant response rating, Flood, Sedge, Umbrella [11, 17]: 100
- Plant response rating, Sedge, Umbrella [11, 18]: 0
- Plant response rating, Sedge, Umbrella [11, 19]: 85
- Sedge, Umbrella plant response rating [11, 20]: 0
